Data: patent US20200046703A1, “COMPOSITIONS AND METHODS FOR TREATMENT OF THE SIDE-EFFECTS ASSOCIATED WITH ADMINISTRATION OF THERAPEUTIC AGENTS” (ASYMMETRIC THERAPEUTICS, LLC, priority 2018, published 2020)
Several values for one entry are separate records, joined by “and”; a condition that tells them apart may be missing. Equal entries are not always repeated.

What was measured:
Format in all cases: cell-based, human
[1] = Proliferating HPEK cell viability with/without 5-FU; settings: human, proliferating HPEK cells; 10 μM of 5-FU; read-out: viability compared to a control system without 5-FU
Procedure: (§1) In another set of experiments, the results of which are shown in Table 2, proliferating HPEK cells, commonly used to assess skin tissue toxicity, were exposed to the clinically-relevant dose of 10 μM of 5-FU and different concentrations of oxypurinol, either alone or with different concentrations of adenine or uracil, using standard tissue culture methods and incubated at 37° C. Oxypurinol concentrations of 0.03 mM, 0.1 mM, and 0.3 mM were tested. Adenine and uracil concentrations of 0.1 mM and 0.3 mM were tested. The relative viability of the cells was determined after 120 hours.

proliferating HPEK cells = assay: as above; settings: 5-FU 10 μM alone; relative to control; 120 hours
Procedure: as §1

[2] = Confluent HPEK cell viability with/without 5-FU; settings: human, confluent HPEK cells; 10 μM of 5-FU; read-out: viability compared to a control system without 5-FU
Procedure: (§2) Oxypurinol and allopurinol concentrations of 0.3 mM, 1.0 mM, and 3.0 mM, which are ten times higher than those used in the first set of experiments, were tested. An adenine concentration of 0.3 mM, which was the higher concentration used in the first set of experiments, was tested. The relative viability of the cells was determined after 120 hours.

confluent HPEK cells = assay: Confluent HPEK cell viability with/without 5-FU; settings: 5-FU 10 μM alone; relative to control; 120 hours
Procedure: as §2

[3] = Proliferating HGEP cell viability with/without 5-FU; settings: human, proliferating HGEP cells; 10 μM of 5-FU; read-out: viability compared to a control system without 5-FU
Procedure: as §1, with “one” for “another”, “1,” for “2,”, “HGEP” for “HPEK”, “oral mucosal” for “skin tissue”

proliferating HGEP cells = assay: as above; settings: 5-FU 10 μM alone; relative to control; 120 hours
Procedure: as §1, with “one” for “another”, “1,” for “2,”, “HGEP” for “HPEK”, “oral mucosal” for “skin tissue”

[4] = Confluent NHEK cell viability with/without 5-FU; settings: human, confluent NHEK cells; 10 μM of 5-FU; read-out: viability compared to a control system without 5-FU
Procedure: (§3) In yet another set of experiments, the results of which are shown in Table 4, confluent NHEK cells were exposed to the clinically-relevant dose of 10 μM of 5-FU and different concentrations of sodium hydroxide, oxypurinol, or allopurinol using standard tissue culture methods and incubated at 37° C. Sodium hydroxide concentrations of 1 mM, 2 mM, 3 mM, and 4 mM were tested. Oxypurinol and allopurinol concentrations of 0.1 mM, 0.3 mM, 1.0 mM, and 3.0 mM were tested, both in the presence and in the absence of 10 μM of 5-FU. The relative viability of the cells was determined after 120 hours. The sodium hydroxide trials were only performed to serve as a control.

confluent NHEK cells = assay: Confluent NHEK cell viability with/without 5-FU; settings: 5-FU 10 μM alone; relative to control; 120 hours
Procedure: as §3

## O=c1[nH]cc(F)c(=O)[nH]1 [5-FU, 5-fluorouracil, reference compound]
[1]
  viability at 120 h, 10 µM: 65.1%
Proliferating HPEK cells
  relative cell viability (AVG): 0.6507
[2]
  viability at 120 h, 10 µM: 65.1%
Confluent HPEK cells
  relative cell viability (AVG): 0.64 and 0.6421
[3]
  viability at 120 h, 10 µM: 62.2%
Proliferating HGEP cells
  relative cell viability (AVG): 0.6217
[4]
  viability at 120 h, 10 µM: 41.6%
Confluent NHEK cells
  relative cell viability (AVG): 0.42 and 0.4165
